Reference: ChEMBL document CHEMBL1146588, “Ancistrotanzanine A, the first 5,3'-coupled naphthylisoquinoline alkaloid, and two further, 5,8'-linked related compounds from the newly described species Ancistrocladus tanzaniensis” (J Nat Prod, 2003)
Values after ≈ are worked out from the molar mass of the structure shown.

Tests used:
Leishmania donovani = experiment: Antileishmanial activity against Leishmania donovani; format: functional, organism-based
Trypanosoma cruzi = experiment: Antitrypanosomal activity against Trypanosoma cruzi; format: functional, organism-based
Plasmodium falciparum [1] = experiment: Antimalarial activity against Plasmodium falciparum 3D7; format: functional, organism-based
[2] = test system: Trypanosoma brucei rhodesiense; experiment: Antitrypanosomal activity against Trypanosoma brucei rhodesiense; format: functional, organism-based
[3] = Cytotoxicity against rat L6 cells; format: cell-based; details: read-out: MIC
Plasmodium falciparum [4] = experiment: Antimalarial activity against Plasmodium falciparum K1; format: functional, organism-based

| IC50 (Leishmania donovani) | IC50 (Trypanosoma cruzi) | IC50 (Plasmodium falciparum [1]) | IC50 [2] | IC50 (Plasmodium falciparum [4]) | Compound | MCC [3] |
| --- | --- | --- | --- | --- | --- | --- |
| 0.305 µg/mL (≈ 0.748 µM) |  |  |  |  | CCCCCCCCCCCCCCCCOP(=O)([O-])OCC[N+](C)(C)C [MILTEFOSINE] |  |
|  | 0.42 µg/mL (≈ 1.61 µM) |  |  |  | O=C(Cn1ccnc1[N+](=O)[O-])NCc1ccccc1 [BENZNIDAZOLE] |  |
| > 10 µg/mL | 17.8 µg/mL (≈ 42.2 µM) | 14 µg/mL (≈ 33.2 µM) | 2.1 µg/mL (≈ 4.98 µM) | 0.5 µg/mL (≈ 1.19 µM) | COc1cc(OC)c2c(c1-c1ccc(OC)c3c(OC)cc(C)cc13)C[C@H](C)N[C@H]2C [ANCISTROTECTORILINE A] | 6.5 µg/mL |
| 1.8 µg/mL (≈ 4.44 µM) | 1.7 µg/mL (≈ 4.19 µM) |  | 0.7 µg/mL (≈ 1.73 µM) | 0.3 µg/mL (≈ 0.74 µM) | COc1cc(OC)c(-c2c(C)cc3cccc(OC)c3c2O)c2c1C(C)=N[C@@H](C)C2 [ANCISTROTANZANINE A] | 6.4 µg/mL |
| 1.6 µg/mL (≈ 3.81 µM) | 1.5 µg/mL (≈ 3.58 µM) | 5 µg/mL (≈ 11.9 µM) | 0.7 µg/mL (≈ 1.67 µM) | 0.3 µg/mL (≈ 0.715 µM) | COc1cc(OC)c(-c2ccc(OC)c3c(OC)cc(C)cc23)c2c1C(C)=N[C@@H](C)C2 [ANCISTROEALAINE A] | 8.1 µg/mL |

| Compound | IC50 (Leishmania donovani) | IC50 (Trypanosoma cruzi) | IC50 (Plasmodium falciparum [1]) | IC50 [2] | IC50 (Plasmodium falciparum [4]) | MCC [3] |
| --- | --- | --- | --- | --- | --- | --- |
| Nc1nc(N)nc(Nc2ccc([As]3SCC(CO)S3)cc2)n1 (stereo not given) [MELARSOPROL] |  |  |  | 0.001 µg/mL |  |  |
